Laboratory results as given in patent US20240342199A1, “COMBINATION THERAPIES TARGETING MITOCHONDRIA FOR CANCER THERAPY” (The Wistar Institute of Anatomy and Biology, priority 2014, published 2024).

What was measured:
LN229 cells = assay: High-throughput screening: cell viability (resazurin), compounds with DMSO or Gamitrinib; type: cell-based, Human; conditions: for inhibition at 0.000128 µM / inhibition at 0.00064 µM / inhibition at 0.0032 µM / inhibition at […] / inhibition at 0.08 µM / inhibition at 0.4 µM / inhibition at 2 µM / inhibition at 10 µM: Homo sapiens, LN-229, read-out: Percent inhibition; for inhibition at 0.000128 µM: compound 0.000128 uM + DMSO (control); for inhibition at 0.00064 µM: compound 0.00064 uM + DMSO (control); for inhibition at 0.0032 µM: compound 0.0032 uM + DMSO (control); for inhibition at […]: compound 0.016 uM + DMSO (control); for inhibition at 0.08 µM: compound 0.08 uM + DMSO (control); for inhibition at 0.4 µM: compound 0.4 uM + DMSO (control); for inhibition at 2 µM: compound 2 uM + DMSO (control); for inhibition at 10 µM: compound 10 uM + DMSO (control)
Method: High-throughput screening and synergy experiments. Compounds for the molecular targeted cancer therapeutics were either purchased from SelleckChem or acquired under Material Transfer Agreement (MTA) with the Wistar Institute MTA. Compounds were suspended in DMSO. The purity and identity of the compounds was confirmed by LC/MS for a fraction of the compounds. Source plates with a 10 point dilution series (5-fold dilutions, ranging from 10-0.0001 μmol/L) were prepared for screening. […] Cell viability was determined by the addition of resazurin to a final concentration of 50 μM and incubation for 8 h. Fluorescence intensity (excitation, 560 nm, emission, 590 nm) was determined on an Envision Xcite Multilabel Reader (Perkin-Elmer), and the fractional growth inhibition was determined by normalizing assay wells to the aggregated average responses of positive control (10 μM doxorubicin) and negative control (0.2% DMSO) treatments (n=12).

[1] = tested on: Akt2 (Ser474) in cytosol and mitochondria; assay: Phosphorylated Akt in cytosol and mitochondrial extracts by Western blotting; type: cell-based, Human; conditions: pretreatment with 17-AAG; cytosol and mitochondria
Method: Subcellular and submitochondrial fractionation. Mitochondrial fractions were isolated using an ApoAlertTM cell fractionation kit (CLONTECH), as described. Submitochondrial fractions comprising outer membrane (OM), inner membrane (IM), inter-membrane space (IMS) and matrix were prepared as described.

[2] = tested on: Ser473-phosphorylated Akt (pAkt); assay: Ser473-phosphorylated Akt in patient-derived organotypic cultures; type: cell-based, Human; conditions: tumor organoids, 48 h
Method: Organotypic cultures. Short-term organotypic cultures from the different patient samples were established as described previously. Briefly, precise thick tissue slices (300 μm) were obtained from each case by vibratome serial cutting (VT1200, Leica Microsystems, Milan, Italy), and cultured in six-well plates on organotypic inserts (Millicell PICM ORG, Merck Millipore) for up to 48 h in 1 ml of Ham-F12 complete medium supplemented with vehicle (DMSO, 2.5 μl), pan-PI3K inhibitor LY294002 (50 or 100 μM) or PX-886 (2.5, 5 or 10 μM), or mitochondrial-targeted small molecule Heat Shock Protein-90 (Hsp90) inhibitor, 10 Gamitrinib (GA mitochondrial matrix inhibitor, 10 or 25 μM), or the combination of PX-886 plus Gamitrinib (each agent used at 10 μM). At the end of the experiment, one tissue slice per condition was formalin-fixed and paraffin-embedded (FFPE), and processed for morphological and immunohistochemical analysis. An additional tissue slice collected at the end of the experiment was embedded in optimal cutting temperature, and snap-frozen for molecular or immunofluorescence studies.

Akt phosphorylation = Akt phosphorylation in tumor cell lines by Western blotting; type: cell-based, Human; conditions: PC3 cells, AZD6482 (10 μM), (0.4-2 μM) or BKM120 (0.4-2 μM), 48 h
LN229 or PC3 cells = assay: Analysis of bioenergetics (ATP, glucose, lactate, oxygen consumption); type: cell-based, Human; conditions: PX-866 (10 μM), AZD6482 (10 μM) or GDC0941 (2 μM) for 48 h
class I PI3K isoforms = conditions: cited from earlier work
[3] = compound 0.000128 uM + Gamitrinib (1 μM)
[4] = compound 0.00064 uM + Gamitrinib (1 μM)
[5] = compound 0.0032 uM + Gamitrinib (1 μM)
[6] = compound 0.08 uM + Gamitrinib (1 μM)
[7] = compound 0.4 uM + Gamitrinib (1 μM)
[8] = compound 2 uM + Gamitrinib (1 μM)
[9] = compound 10 uM + Gamitrinib (1 μM)
[10] = compound 2.56E−05 uM + DMSO (control)
[11] = compound 2.56E−05 uM + Gamitrinib (1 μM)
[12] = compound 5.12E−06 uM + DMSO (control)
[13] = compound 5.12E−06 uM + Gamitrinib (1 μM)
[14] = compound […] + Gamitrinib (1 μM)

SMILES	inhibition at 0.000128 µM (LN229 cells) [%]	inhibition at 0.00064 µM (LN229 cells) [%]	inhibition at 0.0032 µM (LN229 cells) [%]	inhibition at […] (LN229 cells) [%]	inhibition at 0.08 µM (LN229 cells) [%]	inhibition at 0.4 µM (LN229 cells) [%]	inhibition at 2 µM (LN229 cells) [%]	inhibition at 10 µM (LN229 cells) [%]	Percent inhibition (LN229 cells; [3]) [%]	Percent inhibition (LN229 cells; [4]) [%]	Percent inhibition (LN229 cells; [5]) [%]	Percent inhibition (LN229 cells; [6]) [%]	Percent inhibition (LN229 cells; [7]) [%]	Percent inhibition (LN229 cells; [8]) [%]	Percent inhibition (LN229 cells; [9]) [%]	Percent inhibition (LN229 cells; [10]) [%]	Percent inhibition (LN229 cells; [11]) [%]	Percent inhibition (LN229 cells; [12]) [%]	Percent inhibition (LN229 cells; [13]) [%]	Percent inhibition (LN229 cells; [14]) [%]	other results
Cn1c(=O)n(-c2ccc(C(C)(C)C#N)cc2)c2c3cc(-c4cnc5ccccc5c4)ccc3ncc21 [BEZ235]	-21.4	23.8	60.7	74.6	62.6	65.1	67.6	71.6	122.82	127.29	134.66	133.41	140.20	137.11	141.44	−9.35	121.84	−7.25	119.42	145.76	–
C=CCNC1=C2C[C@@H](C)C[C@H](OC)[C@H](O)[C@@H](C)/C=C(\C)[C@H](OC(N)=O)[C@@H](OC)/C=C\C=C(/C)C(=O)NC(=CC1=O)C2=O [17-AAG, 17-(allylamino)-17-demethoxygeldanamycin]	–	–	–	–	–	–	–	–	–	–	–	–	–	–	–	–	–	–	–	–	accumulation of phosphorylated Akt in response to PX-866 [1]: abolished the accumulation of phosphorylated Akt; phosphorylation of Akt on Ser473 [2]: had no effect
Cc1cc([C@@H](C)Nc2ccccc2C(=O)O)c2nc(N3CCOCC3)cc(=O)n2c1 [AZD6482]	11.8	-10.5	-4.1	10.8	21.7	-7.43	5.91	43.4	123.03	128.16	123.40	111.71	114.08	133.90	141.10	−2.03	119.70	3.23	129.84	118.13	Akt phosphorylation (Akt phosphorylation): Akt phosphorylation was observed; ATP production (LN229 or PC3 cells): reduced ATP production; glucose utilization (LN229 or PC3 cells): less glucose utilization; lactate production (LN229 or PC3 cells): less
FC(F)c1nc2ccccc2n1-c1nc(N2CCOCC2)nc(N2CCOCC2)n1 [ZSTK474]	–	–	–	–	–	–	–	–	–	–	–	–	–	–	–	–	–	–	–	–	PI3K activity (class I PI3K isoforms; 1 μM): 4.7 % of the control level; IC50 (class I PI3K isoforms; class I PI3K isoforms, mostly PI3Kδ): 37 nM
COc1ncc(-c2ccc3nccc(-c4ccnnc4)c3c2)cc1NS(=O)(=O)c1ccc(F)cc1F [GSK458]	8.89	11.3	38.1	52.4	67.5	58.1	63.1	53.6	135.48	139.64	139.92	133.47	138.84	142.85	156.27	1.66	128.82	17.03	132.69	136.49	–
CS(=O)(=O)N1CCN(Cc2cc3nc(-c4cccc5[nH]ncc45)nc(N4CCOCC4)c3s2)CC1 [GDC0941]	-14.7	7.03	-17.3	-0.14	21.2	29.8	58.9	64.8	124.43	133.55	19.20	121.46	134.46	140.39	156.27	−27.15	104.45	0.41	125.94	126.85	Akt phosphorylation (Akt phosphorylation): Akt phosphorylation was observed; ATP production (LN229 or PC3 cells): reduced ATP production; glucose utilization (LN229 or PC3 cells): less glucose utilization; lactate production (LN229 or PC3 cells): less
Nc1cc(C(F)(F)F)c(-c2cc(N3CCOCC3)nc(N3CCOCC3)n2)cn1 [BKM120]	4.38	16.2	3.42	8.78	17.7	50.4	54.9	61.7	132.78	130.27	140.77	153.91	150.75	151.13	152.02	19.80	136.65	14.64	130.32	138.62	Akt phosphorylation (Akt phosphorylation): Akt phosphorylation was observed
